According to US20040037868A1, “Select prebiotics for use in weight attenuation message and method of communication” (priority 2002, published 2004):

How the values were obtained:
[1] = associated with a 1000-mg calcium intake increase; women of various ages; estimate; cited from earlier work
[2] = calcium absorbed and retained in postmenopausal women versus placebo; format: in vivo, human; conditions: inulin in a food product
Description: It is believed that food products prepared in accordance with the present invention, would however provide an enhanced benefit to certain selected demographic sections of the population, namely postmenopausal women.

[3] = double blind three-week study of calcium retention and absorption, inulin delivered in a RTE cereal (mass balance, stable isotope enrichment); format: in vivo, human; conditions: adolescent girls, ages 11-13, roughly 1600 mg calcium per day and 9 grams of inulin, three weeks
Experimental: In one double blind study ranging over a period of three weeks, a number of adolescent girls, ages 11-13, were provided with a diet containing roughly 1600 mg/calcium per day and 9 grams of inulin. The diet was delivered as part of a RTE cereal and the amount of calcium retention and absorption was measured by mass balance and stable isotope enrichment. Stool and urine samples were collected and analyzed for calcium excretion by atomic absorption spectrometry. Calcium retention was calculated as: Diet Ca−urine Ca−fecal Ca. Blood samples were also taken at prescribed intervals and serum and urine were analyzed for Ca by plasma mass spectrometry. The results of the analysis provided that inulin had no effect on the retention or absorption of calcium by subjects in this particular demographic.

Molecule	decrease in mean body weight [1] [kg]	level of calcium absorbed and retained versus placebo [2]	effect on absorption of calcium [3]	effect on retention of calcium [3]
[Ca+2] [calcium]	8			
inulin		higher	no effect	no effect
